Values quoted from earlier work in patent US20260041710A1, “A NOVEL COMBINATION FOR ITS UTILITY IN MICRO AND MACRO VASCULAR COMPLICATIONS” (priority 2022, published 2026).
Where two headings read alike, the source gives them in different places.

How the values were obtained:
[1] = test system: 54 Irish patients of diabetic retinopathy; conditions: single injection

What does the source list for “Bevacizumab: full-length antibody that inhibits all isoforms of the VEGF-A family”?
patients with greater than 50 microns reduction of macular thickness [1]: 9.2%; patients with greater than 100 microns reduction of macular thickness [1]: 20.3%; patients with less than 50 microns reduction in macular thickness [1]: 40.7%; patients without any improvement [1]: 29.6%; patients with greater than 50 microns reduction of macular thickness ([1]; of 54 patients): 5 patients; patients with less than 50 microns reduction in macular thickness ([1]; of 54 patients): 22 patients; patients without any improvement ([1]; of 54 patients): 16 patients; BCVA (1 month after intravitreal injection, P<0.001): 0.76; BCVA (before intravitreal injection): 0.90
